Source: US9289433B2, “Proteasome inhibitors and uses thereof” (Yeda Research and Development Co. Ltd., priority 2009, dated 2016)
Non-standard residues stand in square brackets, D forms with d. Residues, ends and D or L forms follow the SMILES beside them. *: point of attachment. Nle = CCCC[C@H](N)C(=O)O; Cbz = O=C(OCc1ccccc1)*

Legend:
proteasome [1] = biological target: T1, proteasome (Homo sapiens, UniProt P28072+P28074+Q99436); experiment: Image-based PIR nuclear translocation assay in H1299-PIR reporter cells; type: cell-based; conditions: for PIR nuclear translocation upon treatment with known proteasome inhibitors: H1299-PIR cells, 6 hours, microscopy; for PIR nuclear translocation in the NCI Diversity Set screen: 1 and 10 μM, 12 hours incubation
T1 construct: endogenous in cells; host or cells: H1299-PIR (H1299 stably expressing the p53-YFP reporter)
Text: To construct a YFP-tagged Proteasome Inhibitor Reporter (PIR) protein, cDNA encoding a full-length human p53 R175H mutant was amplified by PCR from a cDNA clone, and three consecutive lysine residues in the bipartite Nuclear Localization Signal (NLS) were replaced with alanines by PCR-based, site-directed mutagenesis [Higuchi R, et al., (1988) Nucleic Acids Res 16: 7351-7367; Ho S N, et al (1989) Gene 77: 51-59]. The DNA fragment was cloned into the BglII and NotI sites of pLPCX retroviral vector (Clontech) in-frame to the N-terminus of the yellow fluorescent protein (YFP), using the NotI/ClaI restriction sites. The PIR protein was expressed in an H1299 non-small cell lung carcinoma cell line, following retroviral infection, and the cells were cultured in RPMI 1640 medium containing 10% fetal bovine serum, 2 mM glutamine and 1% penicillin-streptomycin (all from Sigma-Aldrich) in a humidified atmosphere of 5% CO2 at 37° C. Fluorescent cells were isolated by flow cytometry, and single-cell cloning was used to generate a morphologically uniform cell population.
PIR-expressing H1299 cells were seeded at a density of 800 cells per well in 384-well assay plates (F-bottom, μClear, black, tissue-culture-treated) (Greiner Bio-One). Cells were cultured for 24 hours and treated with the library compounds at two concentrations (1 and 10 μM) in RPMI 1640. In each assay plate, cells in 24 wells treated with 0.2% DMSO alone were used as controls. […] Following 12 hours of incubation, cells were fixed in 3% paraformaldehyde for 20 minutes, then washed with PBS and screened for localization of the PIR protein.
WiScan™ Cell Imaging System (Idea Bio-Medical) was used for this screen [Paran Y et al., 2006, Methods Enzymol 414: 228-247]. The system is based on an IX71 microscope (Olympus), equipped with a fast laser AutoFocus device and an automated stage. Thirty-six fields were acquired from every well using a 60×/0.9 air objective, stored, and tiled into montages to detect consistent effects. Scoring of the nuclear translocation of the fluorescent PIR protein was carried out manually.
The cells were then fixed and scored for nuclear translocation of PIR.

PIR-H1299 cells = experiment: AlamarBlue cell viability assay; type: cell-based, human; conditions: 48 hours, 0.1 to 100 μM
Procedure: The effect of each hit compound on cell viability was tested at 11 different concentrations, ranging from 0.1-100 μM. PIR cells were plated onto 384-well microplates for 24 hours, and then treated for 48 h with the library compounds. Cell viability was determined using the colorimetric AlamarBlue® (Invitrogen) viability assay, according to the manufacturer's instructions.
Proteasome inhibitors are known to be particularly cytotoxic to malignant cells via multiple mechanisms. To directly test the effects of the new proteasome inhibitors discovered in this study on cell viability, PIR-expressing H1299 cells were treated for 48 hours with each of the four compounds, at a wide range of concentrations, ranging from 0.1 to 100 μM. The cells were then subjected to an Alamar Blue viability assay, which quantifies the number of metabolically active cells. […] For all proteasome inhibitors examined in this screen, there was a high correlation between proteasomal inhibitory activity and cell viability.

[2] = system: NCI-60 panel of human tumor cell lines; conditions: molar concentration, cited from earlier work; for average −log10 GI50 over the panel: all NCI-60 cell lines; for overall −log10 GI50, leukemia cells: leukemia subpanel
[3] = biological target: proteasome β2, β1 and β5 activities (Homo sapiens, UniProt P28072+P28074+Q99436); experiment: Inhibition of tryptic-, caspase- and chymotrypsin-like proteasome activities; type: biochemical
[4] = system: purified rabbit 26S proteasomes; experiment: In vitro proteasome activity assay, Suc-LLVY-AMC degradation; type: biochemical; conditions: MG132 control at 5 μM
Procedure: For measuring proteasome activity, purified 20S or 26S proteasomes prepared from rabbit muscles were incubated at a final concentration of 16 nM, with 100 μM fluorogenic 7-amido-4-methylcoumarin (AMC) tetrapeptide substrate Suc-LLVY-AMC (Bachem) and the stated concentration of the hit compounds in the presence of 100 μl of assay buffer (50 mM Hepes, 5 mM MgCl2, 2 mM ATP and 1 mM DTT). […] The time-dependent increase of hydrolyzed AMC groups was measured in a 96-well plate equilibrated to 37° C., using a Varioscan multi-well plate reader (Thermo Fisher Scientific, Inc.) in a kinetic mode, in which the recording intervals were set to 1 minute. The excitation wavelength was 370 nm; fluorescence emission was recorded at 465 nm.
To directly test the capacity of the four compounds to inhibit activity in mammalian proteasomes, an in vitro activity assay was performed in which the hit compounds were tested for their effects on the degradation of the model fluorogenic tetrapeptide LLVY-AMC by purified rabbit 26S proteasomes.

proteasome [5] = biological target: T1, proteasome; experiment: Western blot for accumulation of polyubiquitinated proteins and β-catenin in H1299-PIR cells; type: cell-based; conditions: 6 hours
Procedure: H1299-PIR cells were lysed with radioimmune precipitation assay buffer (1% NP-40, 1% sodium deoxycholate, 0.1% SDS, 150 mM NaCl, 50 mM Tris, pH 8.0) containing a protease inhibitor cocktail from Roche Applied Science. Protein extracts were subjected to 8% SDS-PAGE, transferred to a nitrocellulose membrane (Whatman), and probed with monoclonal anti-p53 (DO1, Santa Cruz Biotechnology), anti-ubiquitin (Covance), anti-β-catenin (Sigma) and anti-β-tubulin (Sigma) primary antibodies.
One characteristic outcome of proteasome inhibition is the accumulation of ubiquitinated proteins in the treated cells. […] Following incubation, cell extracts were analyzed by Western blot, using anti-ubiquitin and anti-β-catenin antibodies.

MCF10A = experiment: Cell viability, normal breast epithelial cell line; type: cell-based, human; conditions: considerably higher concentration than for MDA-MB-231
MDA-MB-231 cells = experiment: Cell viability, malignant breast carcinoma cells; type: cell-based, human
proteasome [6] = biological target: T1, proteasome; conditions: after 20 hours of treatment, flow cytometry; cited from earlier work

proteasome β2, β1 and β5 activities, sequence (Q99436 44-277): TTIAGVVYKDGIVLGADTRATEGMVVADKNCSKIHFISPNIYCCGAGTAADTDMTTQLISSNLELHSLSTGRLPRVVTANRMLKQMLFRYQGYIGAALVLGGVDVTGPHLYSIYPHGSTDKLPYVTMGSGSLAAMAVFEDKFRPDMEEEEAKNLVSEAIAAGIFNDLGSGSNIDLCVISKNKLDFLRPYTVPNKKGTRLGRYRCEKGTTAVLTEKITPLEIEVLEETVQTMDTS
proteasome β2, β1 and β5 activities, sequence (P28072 whole entry): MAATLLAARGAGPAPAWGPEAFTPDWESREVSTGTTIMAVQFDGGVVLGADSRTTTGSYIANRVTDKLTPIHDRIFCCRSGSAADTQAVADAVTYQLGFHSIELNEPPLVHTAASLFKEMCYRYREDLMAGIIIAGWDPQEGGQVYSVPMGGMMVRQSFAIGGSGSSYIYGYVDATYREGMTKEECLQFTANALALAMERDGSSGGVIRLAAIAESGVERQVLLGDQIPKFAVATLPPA
proteasome β2, β1 and β5 activities, sequence (P28074 60-263): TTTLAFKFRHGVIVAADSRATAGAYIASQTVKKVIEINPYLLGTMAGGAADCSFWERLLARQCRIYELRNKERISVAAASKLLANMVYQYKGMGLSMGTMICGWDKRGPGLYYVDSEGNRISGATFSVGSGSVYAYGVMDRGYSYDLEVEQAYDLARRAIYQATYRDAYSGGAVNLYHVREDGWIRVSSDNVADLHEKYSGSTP
proteasome β2, β1 and β5 activities, sequence (P49720 whole entry partner): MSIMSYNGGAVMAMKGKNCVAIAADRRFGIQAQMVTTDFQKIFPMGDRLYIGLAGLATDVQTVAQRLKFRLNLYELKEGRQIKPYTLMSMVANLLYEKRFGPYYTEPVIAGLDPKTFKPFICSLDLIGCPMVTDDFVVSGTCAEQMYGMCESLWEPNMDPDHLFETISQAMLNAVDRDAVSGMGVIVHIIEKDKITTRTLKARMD

Molecule | PIR nuclear translocation upon treatment with known proteasome inhibitors (proteasome [1]) | PIR nuclear translocation in the NCI Diversity Set screen (proteasome [1]) | GI50 (PIR-H1299 cells) | average −log10 GI50 over the panel [2] | overall −log10 GI50, leukemia cells [2] | inhibition of LLVY-AMC degradation by purified 26S proteasome ([4]; 30 μM compound) | other results
CC(C)C[C@H](NC(=O)[C@H](Cc1ccccc1)NC(=O)c1cnccn1)B(O)O [Bortezomib, Pyz-Phe-boroLeu, reference compound] | PIR translocates into the nucleus | – | – | – | – | – | –
CSC(=[SH+])[N-]N=C(c1ccccn1)c1ccccn1.[Cu][Br] [NSC321206] | – | positive in the assay | 170 nM | 7.2 | 7.73 | levels of inhibition comparable to that of MG132 | inhibition of Tryptic like (β2), Caspase like (β1) and Chymotrypsin like (β5) activities of the proteasome [3]: observed inhibition; accumulation of polyubiquitinated proteins and β-catenin (inhibitory effect on proteasomal degradation) (proteasome [5]; 0.15 μM): inhibitory activity comparable to that of 5 μM MG132; effect on cell viability (MCF10A): only partially affected; GI50 (MDA-MB-231 cells; MDA-MB-231): 400 nM; effect on cell viability (MDA-MB-231 cells; MDA-MB-231, 1 μM): effectively eliminated all MDA-MB-231 cells
CS/C([S-])=N/N=C/c1cccc(C)n1.CS/C([S-])=N/N=C/c1cccc(C)n1.[Cu+2] [NSC310551] | – | positive in the assay | 270 nM | 6.6 | 7.028 | levels of inhibition comparable to that of MG132 | accumulation of polyubiquitinated proteins and β-catenin (inhibitory effect on proteasomal degradation) (proteasome [5]; 0.3 μM): inhibitory activity comparable to that of 5 μM MG132
CCCC[C@@H](C=O)NC(=O)[C@H](CC(C)C)NC(=O)[C@H](CC(C)C)NC(C)=O [ALLN, reference compound] (Ac-Leu-Leu-[Nle]-aldehyde) | PIR translocates into the nucleus | – | – | – | – | – | –
8-Quinolinol salicylate [NSC3907] | – | positive in the assay | 47000 nM | 5.3 | 6.249 | – | inhibition of LLVY-AMC degradation by purified 26S proteasome ([4]; 100 μM compound): only a minor effect; accumulation of polyubiquitinated proteins and β-catenin (inhibitory effect on proteasomal degradation) (proteasome [5]; 20 μM): less of an inhibitory effect
NC(CCC(=O)O)C(=O)O (centres unmarked) [NSC99671] | – | positive in the assay | 96000 nM | 4.1 | 4.473 | moderate inhibitory effect | accumulation of polyubiquitinated proteins and β-catenin (inhibitory effect on proteasomal degradation) (proteasome [5]; 50 μM): less of an inhibitory effect
CC(C)C[C@@H](C=O)NC(=O)[C@H](CC(C)C)NC(=O)[C@H](CC(C)C)NC(=O)OCc1ccccc1 [MG132, reference compound] (Cbz-Leu-Leu-Leu-aldehyde) | PIR translocates into the nucleus | – | – | – | – | – | concentration at which MG132 is detected (proteasome [6]): 2.5 µM
